Assay results published in PubChem BioAssay (NCI).
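Cells were grown in 96-well plates and exposed to each compound for 48 hours at five concentrations; endpoints were interpolated linearly between bracketing concentrations, or set to the highest concentration if not reached. TGI denotes the concentration required for complete inhibition of growth.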

Experiments:
Assay in all cases: NCI tumour cell line growth inhibition, 48 h
[1] = test system: OVCAR-3 ovarian
[2] = test system: HOP-92 NSCLC
[3] = test system: NCI/ADR-RES ovarian
[4] = test system: TK-10 renal
[5] = test system: SK-MEL-5 melanoma
[6] = test system: K-562 leukemia
[7] = test system: IGROV1 ovarian
[8] = test system: MDA-N
[9] = test system: HOP-62 NSCLC
[10] = test system: MOLT-4 leukemia
[11] = test system: HS 578T breast
[12] = test system: HCT-116 colon
[13] = test system: UACC-257 melanoma
[14] = test system: OVCAR-5 ovarian
[15] = test system: MDA-MB-231 breast
[16] = test system: HL-60(TB) leukemia
[17] = test system: U251 CNS
[18] = test system: CAKI-1 renal
[19] = test system: BT-549 breast
[20] = test system: SK-MEL-2 melanoma
[21] = test system: RXF 393 renal
[22] = test system: ACHN renal
[23] = test system: NCI-H226 lung
[24] = test system: KM12 colon
[25] = test system: OVCAR-8 ovarian
[26] = test system: NCI-H23 lung
[27] = test system: UO-31 renal
[28] = test system: NCI-H522 lung
[29] = test system: SNB-19 CNS
[30] = test system: DU-145 prostate
[31] = test system: SW-620 colon
[32] = test system: EKVX NSCLC
[33] = test system: SNB-75 CNS
[34] = test system: A549 NSCLC
[35] = test system: T-47D breast
[36] = test system: LOX IMVI melanoma
[37] = test system: NCI-H460 lung
[38] = test system: UACC-62 melanoma
[39] = test system: CCRF-CEM leukemia
[40] = test system: 786-0 renal
[41] = test system: SF-268 CNS
[42] = test system: SF-539 CNS
[43] = test system: SK-MEL-28 melanoma
[44] = test system: RPMI-8226 leukemia
[45] = test system: M14 melanoma
[46] = test system: A498 renal
[47] = test system: SK-OV-3 ovarian
[48] = test system: OVCAR-4 ovarian
[49] = test system: HCT-15 colon
[50] = test system: SF-295 CNS
[51] = test system: HCC-2998 colon
[52] = test system: PC-3 prostate
[53] = test system: MDA-MB-435
[54] = test system: SR leukemia
[55] = test system: COLO 205 colon
[56] = test system: HT29 colon
[57] = test system: SN12C renal
[58] = test system: MALME-3M melanoma
[59] = test system: MCF7 breast

Compound: Cn1c(=O)c2c(nc3[nH]c(=O)c(Br)cn32)n(C)c1=O
- TGI [1]: > 100 µM
- TGI [2]: > 100 µM
- TGI [3]: > 100 µM
- TGI [4]: > 100 µM
- TGI [5]: > 100 µM
- TGI [6]: > 100 µM
- TGI [7]: > 100 µM
- TGI [8]: > 100 µM
- TGI [9]: > 100 µM
- TGI [10]: > 100 µM
- TGI [11]: > 100 µM
- TGI [12]: > 100 µM
- TGI [13]: > 100 µM
- TGI [14]: > 100 µM
- TGI [15]: > 100 µM
- TGI [16]: > 100 µM
- TGI [17]: > 100 µM
- TGI [18]: > 100 µM
- TGI [19]: > 100 µM
- TGI [20]: > 100 µM
- TGI [21]: > 100 µM
- TGI [22]: > 100 µM
- TGI [23]: > 100 µM
- TGI [24]: > 100 µM
- TGI [25]: > 100 µM
- TGI [26]: > 100 µM
- TGI [27]: > 100 µM
- TGI [28]: > 100 µM
- TGI [29]: > 100 µM
- TGI [30]: > 100 µM
- TGI [31]: > 100 µM
- TGI [32]: > 100 µM
- TGI [33]: > 100 µM
- TGI [34]: > 100 µM
- TGI [35]: > 100 µM
- TGI [36]: > 100 µM
- TGI [37]: > 100 µM
- TGI [38]: > 100 µM
- TGI [39]: > 100 µM
- TGI [40]: > 100 µM
- TGI [41]: > 100 µM
- TGI [42]: > 100 µM
- TGI [43]: > 100 µM
- TGI [44]: > 100 µM
- TGI [45]: > 100 µM
- TGI [46]: > 100 µM
- TGI [47]: > 100 µM
- TGI [48]: > 100 µM
- TGI [49]: > 100 µM
- TGI [50]: > 100 µM
- TGI [51]: > 100 µM
- TGI [52]: > 100 µM
- TGI [53]: > 100 µM
- TGI [54]: > 100 µM
- TGI [55]: > 100 µM
- TGI [56]: > 100 µM
- TGI [57]: > 100 µM

Compound: N#Cc1c(NC(=S)Nc2ccc(Cl)cc2)sc2c1CCN(N1CCc3c(sc(NC(=S)Nc4ccc(Cl)cc4)c3C#N)C1)C2
- TGI [1]: > 100 µM
- TGI [3]: > 100 µM
- TGI [4]: > 100 µM
- TGI [5]: 22.3 µM
- TGI [6]: > 100 µM
- TGI [58]: > 100 µM
- TGI [7]: 47.8 µM
- TGI [8]: > 100 µM
- TGI [9]: 55.2 µM
- TGI [10]: > 100 µM
- TGI [11]: > 100 µM
- TGI [12]: > 100 µM
- TGI [13]: > 100 µM
- TGI [14]: 31.1 µM
- TGI [15]: 27.2 µM
- TGI [16]: > 100 µM
- TGI [17]: 86.2 µM
- TGI [18]: > 100 µM
- TGI [19]: > 100 µM
- TGI [20]: 50.2 µM
- TGI [21]: 78.3 µM
- TGI [22]: > 100 µM
- TGI [23]: 34.4 µM
- TGI [24]: > 100 µM
- TGI [25]: 88.5 µM
- TGI [26]: > 100 µM
- TGI [27]: 59.9 µM
- TGI [28]: > 100 µM
- TGI [29]: > 100 µM
- TGI [30]: > 100 µM
- TGI [31]: > 100 µM
- TGI [32]: > 100 µM
- TGI [33]: > 100 µM
- TGI [34]: > 100 µM
- TGI [35]: > 100 µM
- TGI [36]: 23.4 µM
- TGI [37]: > 100 µM
- TGI [38]: 41.8 µM
- TGI [39]: > 100 µM
- TGI [40]: 58.8 µM
- TGI [41]: > 100 µM
- TGI [42]: 34.2 µM
- TGI [43]: > 100 µM
- TGI [59]: > 100 µM
- TGI [44]: > 100 µM
- TGI [45]: 23.2 µM
- TGI [46]: 36.9 µM
- TGI [47]: > 100 µM
- TGI [48]: > 100 µM
- TGI [49]: > 100 µM
- TGI [50]: 50.4 µM
- TGI [51]: > 100 µM
- TGI [52]: > 100 µM
- TGI [53]: > 100 µM
- TGI [54]: > 100 µM
- TGI [55]: 33.4 µM
- TGI [56]: 26.5 µM
- TGI [57]: > 100 µM

Compound: O=S(=O)(Nc1nc2ccccc2nc1N1CCCCCC1)c1ccccc1
- TGI [1]: 36.5 µM
- TGI [2]: 37.4 µM
- TGI [3]: > 100 µM
- TGI [4]: 40 µM
- TGI [5]: 29.5 µM
- TGI [6]: > 100 µM
- TGI [58]: > 100 µM
- TGI [7]: > 100 µM
- TGI [8]: > 100 µM
- TGI [9]: 84.5 µM
- TGI [10]: 44.2 µM
- TGI [11]: 83.9 µM
- TGI [12]: > 100 µM
- TGI [13]: 99.2 µM
- TGI [14]: > 100 µM
- TGI [15]: > 100 µM
- TGI [16]: 75.1 µM
- TGI [17]: 48.8 µM
- TGI [18]: > 100 µM
- TGI [19]: 50.1 µM
- TGI [20]: 33.4 µM
- TGI [21]: 57.5 µM
- TGI [22]: 86.7 µM
- TGI [23]: > 100 µM
- TGI [24]: 52 µM
- TGI [25]: > 100 µM
- TGI [26]: 44.2 µM
- TGI [27]: 33.9 µM
- TGI [28]: 57.1 µM
- TGI [29]: > 100 µM
- TGI [30]: > 100 µM
- TGI [31]: 65.3 µM
- TGI [32]: > 100 µM
- TGI [33]: 86.1 µM
- TGI [34]: > 100 µM
- TGI [35]: > 100 µM
- TGI [36]: > 100 µM
- TGI [37]: 33.5 µM
- TGI [38]: 52.9 µM
- TGI [39]: > 100 µM
- TGI [40]: > 100 µM
- TGI [41]: > 100 µM
- TGI [42]: 95.7 µM
- TGI [43]: > 100 µM
- TGI [59]: > 100 µM
- TGI [44]: > 100 µM
- TGI [45]: 49.9 µM
- TGI [47]: 89.6 µM
- TGI [48]: 36.4 µM
- TGI [49]: 45 µM
- TGI [50]: 70 µM
- TGI [51]: 31.9 µM
- TGI [52]: 77.4 µM
- TGI [53]: 64.6 µM
- TGI [54]: > 100 µM
- TGI [55]: > 100 µM
- TGI [56]: > 100 µM
- TGI [57]: > 100 µM

Compound: O=C1/C(=C/c2ccccc2)Oc2cc(O)ccc21
- TGI [1]: > 100 µM
- TGI [3]: > 100 µM
- TGI [4]: > 100 µM
- TGI [5]: > 100 µM
- TGI [6]: > 100 µM
- TGI [7]: > 100 µM
- TGI [8]: > 100 µM
- TGI [9]: > 100 µM
- TGI [10]: > 100 µM
- TGI [11]: > 100 µM
- TGI [12]: > 100 µM
- TGI [13]: > 100 µM
- TGI [15]: > 100 µM
- TGI [16]: > 100 µM
- TGI [17]: > 100 µM
- TGI [18]: > 100 µM
- TGI [19]: > 100 µM
- TGI [21]: > 100 µM
- TGI [22]: > 100 µM
- TGI [23]: > 100 µM
- TGI [24]: > 100 µM
- TGI [25]: > 100 µM
- TGI [26]: > 100 µM
- TGI [27]: > 100 µM
- TGI [28]: > 100 µM
- TGI [29]: > 100 µM
- TGI [30]: > 100 µM
- TGI [31]: > 100 µM
- TGI [32]: > 100 µM
- TGI [33]: > 100 µM
- TGI [34]: > 100 µM
- TGI [35]: > 100 µM
- TGI [37]: > 100 µM
- TGI [38]: > 100 µM
- TGI [39]: > 100 µM
- TGI [40]: > 100 µM
- TGI [41]: > 100 µM
- TGI [42]: > 100 µM
- TGI [43]: > 100 µM
- TGI [59]: > 100 µM
- TGI [44]: > 100 µM
- TGI [45]: > 100 µM
- TGI [47]: > 100 µM
- TGI [48]: > 100 µM
- TGI [49]: > 100 µM
- TGI [50]: > 100 µM
- TGI [51]: > 100 µM
- TGI [52]: > 100 µM
- TGI [53]: > 100 µM
- TGI [54]: > 100 µM
- TGI [55]: > 100 µM
- TGI [56]: > 100 µM
- TGI [57]: > 100 µM
